From the supplement of paper PMC11451515

Assays:
SEM cells [1] = test: AUC of viability dose-response curve (% viability x log10 dose units); higher = less sensitive; details: 48 h
In short: (§1)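 Leukemia cells adapted to each medium were seeded in 1536-well plates (500 or 1000 cells/well) and given library compounds in DMSO for 48 h at 37°C. The 11 threefold doses spanned 47 μM to 0.79 nM, and CellTiter-Glo One luminescence was normalised per plate to DMSO and cell-free wells before four-parameter log-logistic fitting on log10 dose. Area under the curve was integrated with the trapezoidal rule, scaling curves above full viability and removing curves that failed quality control.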

P12-Ichikawa [2] = test: as above; details: 48 h
In short: as §1

NOMO1 = test: as above; details: 48 h
In short: as §1

SEM cells [3] = test: cell viability relative to DMSO control; higher = less cytotoxic; details: 48 h
In short: (§2)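 Cells were incubated for 48 h at 37°C before CellTiter-Glo One luminescence was read. The cells were NOMO1 or SEM (500 cells/well) or P12-Ichikawa (1000 cells/well) leukemia cells, adapted for at least four passages in each medium and seeded in 1536-well plates (5 μl). Dosing used library compounds in DMSO applied by pin over 11 threefold points, 47 μM to 0.79 nM. Viability is the per-plate percentage of DMSO wells, with cell-free wells as background.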

P12-Ichikawa [4] = test: as above; details: HPLM + 10% dialyzed FBS, 48 h
In short: as §2

C=C(c1ccc(C(=O)O)cc1)c1cc2c(cc1C)C(C)(C)CCC2(C)C
Details | AUC of viability dose-response curve | cell viability [%]
NOMO1, HPLM + 10% dialyzed FBS | 422 | –
NOMO1, RPMI 5 mM glucose + 10% FBS | 434 | –
NOMO1, RPMI 5 mM glucose + 10% dialyzed FBS | 431 | –
P12-Ichikawa [2], HPLM + 10% dialyzed FBS | 477 | –
P12-Ichikawa [2], RPMI 5 mM glucose + 10% FBS | 470 | –
P12-Ichikawa [2], RPMI 5 mM glucose + 10% dialyzed FBS | 468 | –
P12-Ichikawa [4], 0.000781 µM | – | 113
P12-Ichikawa [4], 0.00234 µM | – | 119
P12-Ichikawa [4], 0.00702 µM | – | 121
P12-Ichikawa [4], 0.0211 µM | – | 121
P12-Ichikawa [4], 0.0632 µM | – | 126
P12-Ichikawa [4], 0.19 µM | – | 129
P12-Ichikawa [4], 0.569 µM | – | 125
P12-Ichikawa [4], 1.71 µM | – | 120
P12-Ichikawa [4], 5.12 µM | – | 124
P12-Ichikawa [4], 15.4 µM | – | 117
P12-Ichikawa [4], 46.1 µM | – | 114
SEM cells [1], HPLM + 10% dialyzed FBS | 465 | –
SEM cells [1], RPMI 5 mM glucose + 10% FBS | 465 | –
SEM cells [1], RPMI 5 mM glucose + 10% dialyzed FBS | 461 | –

SEM cells [3], RPMI 5 mM glucose + 10% dialyzed FBS
Details | cell viability [%]
0.000781 µM | 95
0.00234 µM | 110
0.00702 µM | 134
0.0211 µM | 116
0.0632 µM | 116
0.19 µM | 125
0.569 µM | 120
1.71 µM | 118
5.12 µM | 111
15.4 µM | 99.3
46.1 µM | 83.5

NC(=O)N/N=C/c1ccc([N+](=O)[O-])o1
AUC of viability dose-response curve
Details | NOMO1 | P12-Ichikawa [2] | SEM cells [1]
HPLM + 10% dialyzed FBS | 455 | 470 | 472
RPMI 5 mM glucose + 10% FBS | 441 | 435 | 453
RPMI 5 mM glucose + 10% dialyzed FBS | 434 | 470 | 467

cell viability [%], SEM cells [3]
Details | HPLM + 10% dialyzed FBS | RPMI 5 mM glucose + 10% FBS
0.000781 µM | 104 | 121
0.00234 µM | 120 | 133
0.00702 µM | 101 | 123
0.0211 µM | 124 | 129
0.0632 µM | 125 | 137
0.19 µM | 122 | 142
0.569 µM | 109 | 116
1.71 µM | 122 | 140
5.12 µM | 112 | 139
15.4 µM | 126 | 161
46.1 µM | 109 | 120
